Source: publication PMC7710018, “Restoration of motor learning in a mouse model of Rett syndrome following long-term treatment with a novel small-molecule activator of TrkB” (Disease Models & Mechanisms, 2020)
Entries after “also recorded” stand apart in the source; their conditions may differ. Like-named read-outs stand apart in the source and are kept apart here.

Experiments:
M2 (h) = target: T1, M2 (h) (Homo sapiens, UniProt P08172); assay: Cerep ExpresSProfile radioligand binding; conditions: 10 micromolar; antagonist radioligand; read-out: % Inhibition of Control Specific Binding 1st
T1 construct: purchased Cerep (ExpresSProfile)
T1 sequence (P08172 whole entry): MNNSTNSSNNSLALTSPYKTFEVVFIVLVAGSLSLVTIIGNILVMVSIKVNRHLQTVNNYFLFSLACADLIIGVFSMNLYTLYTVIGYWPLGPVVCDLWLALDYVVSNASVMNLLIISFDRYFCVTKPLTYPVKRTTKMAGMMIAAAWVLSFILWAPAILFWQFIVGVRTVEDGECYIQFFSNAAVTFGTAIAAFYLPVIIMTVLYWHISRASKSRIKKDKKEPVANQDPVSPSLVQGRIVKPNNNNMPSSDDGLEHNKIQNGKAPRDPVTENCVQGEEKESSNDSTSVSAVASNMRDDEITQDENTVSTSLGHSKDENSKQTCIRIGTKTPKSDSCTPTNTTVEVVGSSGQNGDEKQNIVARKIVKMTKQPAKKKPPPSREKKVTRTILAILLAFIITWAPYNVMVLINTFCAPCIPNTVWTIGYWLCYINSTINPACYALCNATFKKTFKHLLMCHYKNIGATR
Method: (§1) To evaluate the relative binding specificity of LM22A-4 ([Massa et al., 2010]) and PTX-BD4-3, binding to a broad range of 55 pharmacologically relevant receptors, including numerous neurotransmitter and G-protein coupled receptors was assessed using standard radioligand competition binding assays (ExpressSProfile) performed by Cerep, Inc. (Seattle, WA, USA). In addition, ADME-Tox analysis was performed by Cerep, Inc. All experimental conditions are described on the Cerep website (www.cerep.fr). […]
(§2) Table S1. In vitro binding assays. An ExpresSProfile screen of PTX-BD4-3 binding to a panel of pharmacologically relevant receptors was conducted by Cerep, Inc.
(§3) (Eurofins Panlabs, MO). The results are expressed as percent inhibition of control specific binding obtained in the presence of 10 micromolar PTX-BD4-3. In this assay, values below 50% indicate no specific binding of PTX-BD4-3. The assay was negative for PTX-BD4-3 binding to all of the 55 receptors in the screen.
(§4) (also on this page, place not known: 2B 5‐HT 3 5‐HT 5a 5‐HT 6 5‐HT 7 (agonis t VPAC 1 V 1 Ca 2+ K V SK Ca Na + Cl ‐ 5‐HT Disease Models & Mechanisms: doi:10.1242/dmm.044685: Supplementary information Disease Models & Mechanisms • Supplementary information)

KV channel = assay: Cerep ExpresSProfile radioligand binding; conditions: 10 micromolar; antagonist radioligand
Method: as §1, §2, §3, §4

5-HT3 (h) = target: T2, 5-HT3 (h) (Homo sapiens, UniProt P46098); assay: Cerep ExpresSProfile radioligand binding; conditions: 10 micromolar, antagonist radioligand
T2 construct: Cerep, Inc. (contract screen)
T2 sequence (P46098 24-478): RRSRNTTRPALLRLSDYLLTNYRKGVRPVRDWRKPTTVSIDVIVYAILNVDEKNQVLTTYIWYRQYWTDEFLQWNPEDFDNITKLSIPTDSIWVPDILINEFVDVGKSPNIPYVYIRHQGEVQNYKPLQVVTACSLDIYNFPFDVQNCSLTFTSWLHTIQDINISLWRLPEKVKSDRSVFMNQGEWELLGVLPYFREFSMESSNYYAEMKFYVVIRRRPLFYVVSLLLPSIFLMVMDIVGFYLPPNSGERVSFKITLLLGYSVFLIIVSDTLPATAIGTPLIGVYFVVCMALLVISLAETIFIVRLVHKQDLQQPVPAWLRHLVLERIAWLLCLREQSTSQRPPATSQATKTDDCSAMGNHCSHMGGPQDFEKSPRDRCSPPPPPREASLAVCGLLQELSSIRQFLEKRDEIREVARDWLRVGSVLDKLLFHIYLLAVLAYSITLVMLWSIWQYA
Method: as §1, §2, §3, §4

H2 (h) = target: T3, H2 (h) (Homo sapiens, UniProt P25021); assay: Cerep ExpresSProfile radioligand binding; conditions: 10 micromolar; antagonist radioligand; read-out: % Inhibition of Control Specific Binding 1st
T3 construct: purchased Cerep (ExpresSProfile)
T3 sequence (P25021 whole entry): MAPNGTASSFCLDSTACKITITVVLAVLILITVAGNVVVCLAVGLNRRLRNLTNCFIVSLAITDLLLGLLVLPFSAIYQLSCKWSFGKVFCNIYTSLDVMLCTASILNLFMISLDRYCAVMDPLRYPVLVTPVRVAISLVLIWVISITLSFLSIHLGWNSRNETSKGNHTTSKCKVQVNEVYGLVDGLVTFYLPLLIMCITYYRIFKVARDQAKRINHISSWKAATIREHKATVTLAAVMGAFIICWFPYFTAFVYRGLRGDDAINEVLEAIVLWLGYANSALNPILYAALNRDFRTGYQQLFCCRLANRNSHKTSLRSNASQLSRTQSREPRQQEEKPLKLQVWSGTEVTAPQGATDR
Method: as §1, §2, §3, §4

dopamine transporter (h) = target: T4, dopamine transporter (h) (Homo sapiens, UniProt Q01959); assay: Cerep ExpresSProfile radioligand binding; conditions: 10 micromolar, antagonist radioligand
T4 construct: Cerep, Inc. (contract screen)
T4 sequence (Q01959 whole entry): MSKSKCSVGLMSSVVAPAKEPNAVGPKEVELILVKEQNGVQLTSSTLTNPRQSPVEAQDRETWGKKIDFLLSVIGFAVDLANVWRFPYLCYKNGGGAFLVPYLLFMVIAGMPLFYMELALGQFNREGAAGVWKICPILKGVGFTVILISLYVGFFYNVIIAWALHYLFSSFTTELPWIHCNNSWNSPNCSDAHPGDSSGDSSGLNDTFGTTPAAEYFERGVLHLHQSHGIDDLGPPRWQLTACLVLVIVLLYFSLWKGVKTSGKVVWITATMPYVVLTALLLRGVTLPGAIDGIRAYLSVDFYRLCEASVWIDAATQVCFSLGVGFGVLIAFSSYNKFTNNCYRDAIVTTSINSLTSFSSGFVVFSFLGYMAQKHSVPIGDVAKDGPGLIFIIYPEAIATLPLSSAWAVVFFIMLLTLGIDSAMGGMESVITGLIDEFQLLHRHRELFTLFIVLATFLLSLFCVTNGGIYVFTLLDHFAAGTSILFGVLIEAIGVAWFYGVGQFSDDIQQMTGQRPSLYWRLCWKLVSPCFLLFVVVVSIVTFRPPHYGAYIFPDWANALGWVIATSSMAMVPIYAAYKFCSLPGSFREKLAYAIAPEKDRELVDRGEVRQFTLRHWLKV
Method: as §1, §2, §3, §4

β1 (h) = target: T5, β1 (h) (Homo sapiens, UniProt P08588); assay: Cerep ExpresSProfile radioligand binding; conditions: 10 micromolar; agonist radioligand; read-out: % Inhibition of Control Specific Binding 1st
T5 construct: purchased Cerep (ExpresSProfile)
T5 sequence (P08588 whole entry): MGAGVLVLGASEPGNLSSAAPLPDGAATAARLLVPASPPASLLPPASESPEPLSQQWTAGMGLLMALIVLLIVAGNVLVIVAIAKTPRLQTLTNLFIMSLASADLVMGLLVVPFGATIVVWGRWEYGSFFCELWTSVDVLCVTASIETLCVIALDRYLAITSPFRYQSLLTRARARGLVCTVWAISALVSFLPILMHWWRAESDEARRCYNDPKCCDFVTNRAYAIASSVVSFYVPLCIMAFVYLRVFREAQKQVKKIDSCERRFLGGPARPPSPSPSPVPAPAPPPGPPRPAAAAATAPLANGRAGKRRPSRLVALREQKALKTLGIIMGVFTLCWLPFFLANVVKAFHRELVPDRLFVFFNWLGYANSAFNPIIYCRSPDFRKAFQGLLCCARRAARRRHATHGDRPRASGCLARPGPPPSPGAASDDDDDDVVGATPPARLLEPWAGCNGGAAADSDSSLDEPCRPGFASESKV
Method: as §1, §2, §3, §4

NOP (ORL1) (h) = target: T6, NOP (ORL1) (h) (Homo sapiens, UniProt P41146); assay: Cerep ExpresSProfile radioligand binding; conditions: 10 micromolar, agonist radioligand
T6 construct: purchased Cerep (ExpresSProfile)
T6 sequence (P41146 whole entry): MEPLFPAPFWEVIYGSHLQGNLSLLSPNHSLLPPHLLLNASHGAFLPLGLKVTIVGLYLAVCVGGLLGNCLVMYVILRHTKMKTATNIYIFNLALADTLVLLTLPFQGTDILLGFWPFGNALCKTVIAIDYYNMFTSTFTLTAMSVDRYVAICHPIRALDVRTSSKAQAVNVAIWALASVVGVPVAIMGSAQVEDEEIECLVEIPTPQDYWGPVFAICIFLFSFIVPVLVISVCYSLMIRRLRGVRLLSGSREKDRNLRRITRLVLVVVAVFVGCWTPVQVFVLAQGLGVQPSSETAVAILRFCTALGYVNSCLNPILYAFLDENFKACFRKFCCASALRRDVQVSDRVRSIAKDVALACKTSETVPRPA
Method: as §1, §2, §3, §4

5-HT transporter (h) = target: T7, 5-HT transporter (h) (Homo sapiens, UniProt P31645); assay: Cerep ExpresSProfile radioligand binding; conditions: 10 micromolar, antagonist radioligand
T7 construct: Cerep, Inc. (contract screen)
T7 sequence (P31645 whole entry): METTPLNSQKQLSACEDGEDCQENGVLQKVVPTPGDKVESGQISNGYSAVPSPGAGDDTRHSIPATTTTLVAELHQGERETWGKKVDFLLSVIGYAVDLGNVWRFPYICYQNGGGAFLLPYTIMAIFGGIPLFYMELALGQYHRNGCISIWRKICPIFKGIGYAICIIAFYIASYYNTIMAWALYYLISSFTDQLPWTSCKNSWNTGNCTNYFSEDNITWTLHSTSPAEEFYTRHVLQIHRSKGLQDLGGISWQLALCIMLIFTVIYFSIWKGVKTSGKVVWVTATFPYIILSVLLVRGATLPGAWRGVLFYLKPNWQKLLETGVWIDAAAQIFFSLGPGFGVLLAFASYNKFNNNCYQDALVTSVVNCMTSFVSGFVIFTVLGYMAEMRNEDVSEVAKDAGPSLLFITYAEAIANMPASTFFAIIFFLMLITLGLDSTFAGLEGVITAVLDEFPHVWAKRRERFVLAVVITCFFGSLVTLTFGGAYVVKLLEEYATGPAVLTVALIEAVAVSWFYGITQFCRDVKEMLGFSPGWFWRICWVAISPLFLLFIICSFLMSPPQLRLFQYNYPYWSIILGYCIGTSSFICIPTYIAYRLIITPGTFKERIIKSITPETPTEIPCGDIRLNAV
Method: as §1, §2, §3, §4

δ2 (DOP) (h) = target: T8, δ2 (DOP) (h) (Homo sapiens, UniProt P41143); assay: Cerep ExpresSProfile radioligand binding; conditions: 10 micromolar; agonist radioligand; read-out: % Inhibition of Control Specific Binding 2nd
T8 construct: purchased Cerep (ExpresSProfile)
T8 sequence (P41143 whole entry): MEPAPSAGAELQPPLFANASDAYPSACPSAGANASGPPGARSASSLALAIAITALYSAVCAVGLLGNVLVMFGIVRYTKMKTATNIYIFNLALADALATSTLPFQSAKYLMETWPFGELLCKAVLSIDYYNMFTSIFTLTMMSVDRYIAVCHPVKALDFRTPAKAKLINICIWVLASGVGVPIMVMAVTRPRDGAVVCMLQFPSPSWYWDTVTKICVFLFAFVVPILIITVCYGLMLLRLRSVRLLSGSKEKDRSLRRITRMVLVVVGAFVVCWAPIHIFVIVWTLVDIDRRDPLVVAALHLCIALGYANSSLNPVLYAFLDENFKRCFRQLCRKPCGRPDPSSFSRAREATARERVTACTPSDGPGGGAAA
Method: as §1, §2, §3, §4

5-HT2B (h) = target: T9, 5-HT2B (h) (Homo sapiens, UniProt P41595); assay: Cerep ExpresSProfile radioligand binding; conditions: 10 micromolar, agonist radioligand
T9 construct: Cerep, Inc. (contract screen)
T9 sequence (P41595 whole entry): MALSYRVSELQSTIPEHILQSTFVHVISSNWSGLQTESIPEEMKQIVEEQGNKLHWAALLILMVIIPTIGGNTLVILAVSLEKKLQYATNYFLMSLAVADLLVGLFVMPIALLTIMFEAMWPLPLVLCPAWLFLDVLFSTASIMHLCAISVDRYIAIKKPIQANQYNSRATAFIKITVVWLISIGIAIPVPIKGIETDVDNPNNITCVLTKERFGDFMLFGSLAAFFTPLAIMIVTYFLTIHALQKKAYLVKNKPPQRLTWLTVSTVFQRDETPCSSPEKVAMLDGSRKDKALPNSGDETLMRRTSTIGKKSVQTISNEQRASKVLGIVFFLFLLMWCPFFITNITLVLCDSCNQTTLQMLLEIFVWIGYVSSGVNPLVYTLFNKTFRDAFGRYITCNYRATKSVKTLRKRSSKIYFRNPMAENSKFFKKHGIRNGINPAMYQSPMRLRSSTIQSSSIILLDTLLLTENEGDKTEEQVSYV
Method: as §1, §2, §3, §4

M1 (h) = target: T10, M1 (h) (Homo sapiens, UniProt P11229); assay: Cerep ExpresSProfile radioligand binding; conditions: 10 micromolar, antagonist radioligand
T10 construct: purchased Cerep (ExpresSProfile)
T10 sequence (P11229 1-460): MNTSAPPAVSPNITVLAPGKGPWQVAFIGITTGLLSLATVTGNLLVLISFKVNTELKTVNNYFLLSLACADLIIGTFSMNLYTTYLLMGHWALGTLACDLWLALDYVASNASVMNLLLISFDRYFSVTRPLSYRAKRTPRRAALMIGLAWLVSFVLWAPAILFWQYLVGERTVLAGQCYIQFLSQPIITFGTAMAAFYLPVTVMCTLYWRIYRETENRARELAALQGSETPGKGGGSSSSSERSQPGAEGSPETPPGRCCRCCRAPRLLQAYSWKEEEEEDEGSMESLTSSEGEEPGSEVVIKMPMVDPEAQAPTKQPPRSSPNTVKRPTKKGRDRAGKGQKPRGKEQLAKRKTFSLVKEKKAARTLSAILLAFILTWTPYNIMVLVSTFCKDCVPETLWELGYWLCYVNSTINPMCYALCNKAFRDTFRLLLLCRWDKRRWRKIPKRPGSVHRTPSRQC
Method: as §1, §2, §3, §4

Na+ channel (site 2) = assay: Cerep ExpresSProfile radioligand binding; conditions: 10 micromolar; antagonist radioligand
Method: as §1, §2, §3, §4

[1] = tested on: 55 pharmacologically relevant receptors; assay: Cerep ExpresSProfile screen, whole panel; conditions: 10 μM; inhibition of binding greater than 50% = significant binding
Excerpt: To further define the specificity of PTX-BD4-3 for TrkB, we screened 55 pharmacologically relevant receptors, including neurotransmitter and G-protein coupled receptors for PTX-BD4-3 binding (Table S1). […] Thus, as with LM22A-4 ([Massa et al., 2010]), the specificity of PTX-BD4-3 for TrkB is supported by multiple lines of evidence, including receptor binding, receptor activation, receptor adaptor recruitment and cell survival assays.
as §1
48 Ca2+ channel (L, verapamil site) 0 ‐1.3 ‐0.7
(phenylalkylamine) (antagonist radioligand) […]
51 Na+ channel (site 2) (antagonist radioligand) 0.6 11.7 6.1
52 Cl‐ channel (GABA‐gated) (antagonist 2.7 ‐5.3 ‐1.3 […]
Table S1. In vitro binding assays. […]
(Eurofins Panlabs, MO). The results are expressed as percent inhibition of control specific binding obtained in the presence of 10 micromolar PTX-BD4-3. […]

[2] = read-out: % Inhibition of Control Specific Binding 1st
[3] = read-out: % Inhibition of Control Specific Binding 2nd
[4] = read-out: % Inhibition of Control Specific Binding Mean

## COCCN(C)C(=O)c1cc(C(=O)N(C)CCOC)cc(C(=O)N(C)CCOC)c1 [PTX-BD4-3, benzene-1,3,5-tricarboxylic acid tris-[(2-methoxy-ethyl)-methyl-amide]]
M2 (h)
  inhibition at 10 µM: 6.3%
KV channel
  % Inhibition of Control Specific Binding 1st: 6.4%
5-HT3 (h); [2]
  inhibition at 10 µM: 6.9%
5-HT3 (h); [3]
  inhibition at 10 µM: 13.4%
5-HT3 (h); [4]
  inhibition at 10 µM: 10.1%
H2 (h)
  inhibition at 10 µM: 2.8%
Dopamine transporter (h); [2]
  inhibition at 10 µM: 2.2%
Dopamine transporter (h); [3]
  inhibition at 10 µM: 0.9%
Dopamine transporter (h); [4]
  inhibition at 10 µM: 1.6%
β1 (h)
  inhibition at 10 µM: 3.7%
NOP (ORL1) (h); [3]
  inhibition at 10 µM: 6.3%
NOP (ORL1) (h); [4]
  inhibition at 10 µM: 0.1%
5-HT transporter (h); [2]
  inhibition at 10 µM: 16.3%
5-HT transporter (h); [3]
  inhibition at 10 µM: 5.5%
5-HT transporter (h); [4]
  inhibition at 10 µM: 10.9%
δ2 (DOP) (h)
  inhibition at 10 µM: 1.9%
5-HT2B (h); [2]
  inhibition at 10 µM: 12.6%
5-HT2B (h); [4]
  inhibition at 10 µM: 3.5%
M1 (h); [2]
  inhibition at 10 µM: 5%
M1 (h); [3]
  inhibition at 10 µM: 15%
M1 (h); [4]
  inhibition at 10 µM: 10%
Na+ channel (site 2)
  % Inhibition of Control Specific Binding 1st: 0.6%
  % Inhibition of Control Specific Binding 2nd: 11.7%
  % Inhibition of Control Specific Binding Mean: 6.1%
[1]
  binding within the panel of 55 receptors: negative; also recorded: no significant binding
